Data published in ChEMBL document CHEMBL1201862, “PubChem BioAssay data set” (2004).
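Briefly, cells in 96-well plates were exposed to five compound concentrations for 48 h, and endpoints were estimated by linear interpolation. GI50: concentration for 50% inhibition of growth.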 Activity calls are given as the source filed them. No stated cut-off is given here; in the data, active = GI50 up to about 1.1 µM and inactive = higher.

Assays:
Assay in all cases: NCI anticancer screen, dose series, 48 h
786-0 = system: 786-0
A498 = system: A498
A549 = system: A549
ACHN = system: ACHN
BT-549 = system: BT-549
CAKI-1 = system: CAKI-1
COLO 205 = system: COLO 205
DU-145 = system: DU-145
EKVX = system: EKVX
HCT-116 = system: HCT-116
HCT-15 = system: HCT-15
HL-60 = system: HL-60
HOP-62 = system: HOP-62
HOP-92 = system: HOP-92
HT-29 = system: HT-29
Hs-578T = system: Hs-578T
IGROV-1 = system: IGROV-1
K562 = system: K562
KM12 = system: KM12
LOX IMVI = system: LOX IMVI
M14 = system: M14
MCF7 = system: MCF7
MDA-MB-231 = system: MDA-MB-231
MDA-MB-435 = system: MDA-MB-435
MDA-N = system: MDA-N
MOLT-4 = system: MOLT-4
Malme-3M = system: Malme-3M
NCI-H226 = system: NCI-H226
NCI-H23 = system: NCI-H23
NCI-H460 = system: NCI-H460
NCI-H522 = system: NCI-H522
NCI/ADR-RES = system: NCI/ADR-RES
OVCAR-3 = system: OVCAR-3
OVCAR-4 = system: OVCAR-4
OVCAR-5 = system: OVCAR-5
OVCAR-8 = system: OVCAR-8
PC-3 = system: PC-3
RPMI-8226 = system: RPMI-8226
RXF 393 = system: RXF 393
SF-295 = system: SF-295
SF-539 = system: SF-539
SK-MEL-28 = system: SK-MEL-28
SK-MEL-2 = system: SK-MEL-2
SK-MEL-5 = system: SK-MEL-5
SK-OV-3 = system: SK-OV-3
SN12C = system: SN12C
SNB-19 = system: SNB-19
SNB-75 = system: SNB-75
SR = system: SR
SW-620 = system: SW-620
T47D = system: T47D
TK-10 = system: TK-10
U-251 = system: U-251
UACC-257 = system: UACC-257
UACC-62 = system: UACC-62
UO-31 = system: UO-31
CCRF-CEM = system: CCRF-CEM
SF-268 = system: SF-268
HCC 2998 = system: HCC 2998

Measured: GI50

Cc1ccc(S(=O)(=O)Nc2ccccc2C=O)cc1
active: SF-539 0.569 µM
inactive: 786-0 16.3 µM | A498 30 µM | A549 27.1 µM | ACHN 17.7 µM | BT-549 18.6 µM | CAKI-1 23.9 µM | COLO 205 16.9 µM | DU-145 26.1 µM | EKVX 25 µM | HCT-116 14.8 µM | HL-60 11 µM | HOP-62 21.5 µM | HOP-92 2.35 µM | HT-29 22.8 µM | Hs-578T 15.8 µM | IGROV-1 17.4 µM | K562 8.15 µM | KM12 16.1 µM | LOX IMVI 13.8 µM | M14 19.3 µM | MCF7 12.4 µM | MDA-MB-231 15.1 µM | MDA-MB-435 10.5 µM | MDA-N 15.7 µM | MOLT-4 11.9 µM | Malme-3M 14.7 µM | NCI-H226 14.6 µM | NCI-H23 14.7 µM | NCI-H460 19.8 µM | NCI-H522 29 µM | NCI/ADR-RES 14.6 µM | OVCAR-3 16.9 µM | OVCAR-4 16.4 µM | OVCAR-5 25.1 µM | OVCAR-8 14.7 µM | PC-3 11.4 µM | RPMI-8226 5.62 µM | RXF 393 25.6 µM | SF-295 18.9 µM | SK-MEL-28 21.3 µM | SK-MEL-2 11.9 µM | SK-MEL-5 11.9 µM | SK-OV-3 26.8 µM | SN12C 16.1 µM | SNB-19 21.5 µM | SNB-75 18.3 µM | SR 18.2 µM | SW-620 17 µM | T47D 14.9 µM | TK-10 17.9 µM | U-251 13.1 µM | UACC-257 18 µM | UACC-62 12.5 µM | UO-31 10.7 µM
7.4 µM: HCT-15

Cc1nn(-c2ccccc2)c2c1C(c1cc3ccccc3nc1Cl)NC(=S)N2 (centres undefined)
31.8 µM: HCT-15
inactive: 786-0 33 µM | A498 71 µM | A549 > 100 µM | ACHN 54.2 µM | BT-549 47.4 µM | CAKI-1 59.4 µM | CCRF-CEM 31.9 µM | COLO 205 > 100 µM | DU-145 > 100 µM | EKVX 92.7 µM | HCT-116 36.1 µM | HL-60 35.5 µM | HOP-62 > 100 µM | HOP-92 18.2 µM | HT-29 44.9 µM | Hs-578T 37.7 µM | IGROV-1 12 µM | K562 39.5 µM | KM12 30.7 µM | LOX IMVI 22.6 µM | M14 > 100 µM | MCF7 38 µM | MDA-MB-231 > 100 µM | MDA-MB-435 29 µM | MDA-N 45.7 µM | MOLT-4 29.4 µM | Malme-3M > 100 µM | NCI-H226 > 100 µM | NCI-H23 67.3 µM | NCI-H460 > 100 µM | NCI-H522 14.3 µM | NCI/ADR-RES 46.3 µM | OVCAR-3 54 µM | OVCAR-4 65.3 µM | OVCAR-5 > 100 µM | OVCAR-8 27.9 µM | PC-3 67.1 µM | RPMI-8226 20.7 µM | RXF 393 26.3 µM | SF-268 34.8 µM | SF-295 43.4 µM | SF-539 24.8 µM | SK-MEL-2 14.5 µM | SK-MEL-5 58.6 µM | SK-OV-3 97.5 µM | SN12C 78.3 µM | SNB-19 57.3 µM | SNB-75 82.2 µM | SR 44.6 µM | SW-620 30.1 µM | T47D > 100 µM | TK-10 58.5 µM | U-251 23.4 µM | UACC-257 > 100 µM | UACC-62 76.7 µM | UO-31 20.8 µM

O=C1Nc2ccccc2S/C1=C\c1ccccc1C(F)(F)F
inactive: 786-0 44.1 µM | A498 > 10 µM | A549 > 100 µM | ACHN 15.1 µM | BT-549 59.7 µM | CAKI-1 68.9 µM | CCRF-CEM 2.24 µM | COLO 205 > 100 µM | DU-145 > 100 µM | EKVX > 100 µM | HCT-116 > 100 µM | HL-60 4.2 µM | HOP-62 > 100 µM | HOP-92 5.38 µM | HT-29 > 100 µM | Hs-578T 51.9 µM | IGROV-1 29 µM | KM12 > 100 µM | LOX IMVI > 100 µM | M14 > 100 µM | MCF7 98.6 µM | MDA-MB-231 > 100 µM | MDA-MB-435 > 100 µM | MDA-N > 100 µM | MOLT-4 > 100 µM | Malme-3M > 100 µM | NCI-H226 > 100 µM | NCI-H460 94.6 µM | NCI-H522 30.5 µM | NCI/ADR-RES > 100 µM | OVCAR-3 > 100 µM | OVCAR-4 18.8 µM | OVCAR-5 > 100 µM | OVCAR-8 72.6 µM | PC-3 > 100 µM | RPMI-8226 64.1 µM | RXF 393 > 100 µM | SF-268 > 100 µM | SF-295 > 100 µM | SF-539 72.8 µM | SK-MEL-28 > 100 µM | SK-MEL-2 > 100 µM | SK-MEL-5 > 100 µM | SK-OV-3 89.5 µM | SN12C > 100 µM | SNB-19 > 100 µM | SNB-75 34.4 µM | SR > 100 µM | SW-620 > 100 µM | T47D > 100 µM | TK-10 40.6 µM | U-251 71.9 µM | UACC-257 > 100 µM | UACC-62 > 100 µM | UO-31 > 100 µM
> 100 µM: HCT-15

OCC1OC(NC(=S)NCCC(F)(F)C(F)(F)C(F)(F)C(F)(F)C(F)(F)C(F)(F)F)C(O)C(O)C1O (centres undefined)
> 100 µM: HCT-15
inactive: 786-0 > 100 µM | A498 18.5 µM | A549 > 100 µM | ACHN 88.1 µM | BT-549 > 100 µM | CAKI-1 > 100 µM | CCRF-CEM 38.3 µM | COLO 205 > 100 µM | DU-145 > 100 µM | HCC 2998 > 100 µM | HCT-116 80.4 µM | HL-60 > 100 µM | HOP-62 71.4 µM | HOP-92 29.2 µM | HT-29 > 100 µM | Hs-578T > 100 µM | IGROV-1 65.9 µM | K562 28.2 µM | KM12 > 100 µM | LOX IMVI 49.5 µM | M14 56.4 µM | MCF7 > 100 µM | MDA-MB-231 > 100 µM | MDA-MB-435 58.6 µM | MDA-N > 100 µM | MOLT-4 21.6 µM | Malme-3M > 100 µM | NCI-H23 > 100 µM | NCI-H460 > 100 µM | NCI/ADR-RES > 100 µM | OVCAR-3 > 100 µM | OVCAR-4 > 100 µM | OVCAR-5 > 100 µM | PC-3 43 µM | RPMI-8226 > 100 µM | RXF 393 75.3 µM | SF-268 > 100 µM | SF-295 80.9 µM | SF-539 > 100 µM | SK-MEL-28 72.9 µM | SK-MEL-2 > 100 µM | SK-MEL-5 35.6 µM | SK-OV-3 > 100 µM | SN12C > 100 µM | SNB-19 69.8 µM | SNB-75 > 100 µM | SR > 100 µM | SW-620 > 100 µM | T47D > 100 µM | TK-10 > 100 µM | U-251 37.3 µM | UACC-257 54.7 µM | UACC-62 67.9 µM | UO-31 > 100 µM
